According to patent US6841535B2, “Peptide-mediated transfection agents and methods of use” (Active Motif, priority 2000, dated 2005):
*1 amine or outer side, *2 acyl side, *3 side chain or, on linkers, in order; H or OH if unused. Where no end group is shown, it is not given here. Cysteamide = C(CS[*:3])N[*:1]

Assays:
[1] = system: HS-68 and NIH 3T3 cell lines; assay: Drug delivery by vector peptides (ANS and Bis-ANS); format: cell-based; conditions: transfection of ANS and Bis-ANS; incubated with peptide at a molar ratio of 1:20; 1 h
Procedure: For investigation of drug delivery, we used the naphthalene derivatives ANS and Bis-ANS, which have intrinsic fluorescence. The drugs was incubated with peptide at a molar ratio of 1:20, followed by overlay of the complex onto cultured cells. This was followed by incubation for 1 h. Then cells were extensively washed and observed by microscopy.
(§1) The results of the experiments testing the transfection properties of the peptides are presented as a table in which the sequences are aligned for optimal comparison: […]

[2] = system: HS-68 and NIH 3T3 cell lines; assay: Protein delivery by vector peptides (GFP); format: cell-based; conditions: transfection of GFP; incubated with peptide at a molar ratio of 1:20; 1 h
Procedure: (§2) We evaluated the ability of peptides designed according to principles described herein, as well as variants thereof, to deliver peptides and proteins into HS-68 and NIH 3T3 cell lines. Peptide delivery was performed with a 32 mer peptide (peptide B), and in some cases a […] peptide (peptide A). The peptides were fluorescently labeled. Peptides (5.0×10^−8M or 5.0×10^−7M) were incubated with one micromolar vector peptide in cell culture medium in the absence of serum for 30 min. Cultured cells (0.5 to 1.0×10^6) were then overlaid with the preformed peptide/vector peptide complexes in 500 μL DMEM for one hour in the presence or absence of FCS. Complexes were formed prior to addition of FCS to avoid interactions between ep-vector and serum proteins. Following this transfection step, fresh DMEM supplemented with serum was added for another hour. Then cells were extensively washed, fixed and analyzed by fluorescence microscopy.
To investigate protein delivery we tested the delivery into cells of the fluorescent protein GFP. The protein was incubated with peptide at a molar ratio of 1:20, followed by overlay of the complex onto cultured cells. This was followed by incubation for 1 h. Then cells were extensively washed and fixed with formalin before observation.
as §1

[3] = system: HS-68 and NIH 3T3 cell lines; assay: Peptide delivery by vector peptides (fluorescently labeled peptide B / peptide A); format: cell-based; conditions: transfection of fluorescently labeled peptide; one micromolar vector peptide; 1 h
Procedure: as §2, §1

[4] = system: human fibroblasts (HS-68); assay: Cellular localization of rhodamine-labeled ODN-peptide conjugate; format: cell-based
Procedure: The first ODN has the sequence d(GGTCTTACTCTCCGTCTCT) (SEQ ID NO:30). It was modified in 5′ by a hexamethylene-bridged pyridyldisulfide and in 3′ by a 2-propanol-3-amino group and labeled with rhodamine. Conjugation was performed by stirring a solution of the oligonucleotide with a three fold excess of peptide for 3 h. […] The target compartment of the conjugate remains to be identified.

[5] = system: mammalian fibroblasts, NIH 3T3 fibroblasts or murine L1210 lymphocytes; assay: Cellular localization of lucifer yellow-linked peptides; format: cell-based; conditions: 3 min incubation at 10 μM
[6] = system: Acheloplasma laidlawii and Spiroplasma melliferum; conditions: concentrations much lower than minimal inhibitory concentrations; cited from earlier work
[7] = phosphatidylcholine or phosphatidylserine monolayers; cited from earlier work

In the case of “Tyr Gly Phe Lys Lys Arg Arg Gln Pro Thr Trp Trp Glu Thr Trp Trp Thr Glu (Ac-YGFKKRRQPTWWETWWTE-Cysteamide) [Pep-1.1-cya]”, the Drug [1] is reported as 5%, the Pro [2] is reported as 60% and the Pep [3] is reported as 80%.

For “d(GGTCTTACTCTCCGTCTCT) (DNA, backbone not given here; 5' hexamethylene pyridyldisulfide, 3' 2-propanol-3-amino, rhodamine label, peptide conjugated) [first ODN]”, the “cellular localization of the conjugate” value ([4]; ODN conjugated to peptide, 5 min incubation) was “clearly cytoplasmic but not nuclear” and the “cellular internalization of the free oligonucleotide” value ([4]; free, not conjugated) was “no spontaneous cellular internalization could be detected”.

In the case of “Lys Lys Lys Arg Lys Val Lys Pro Glu Thr Trp Trp Glu Thr Trp Trp Glu Thr Val (Ac-KKKRKVKPETWWETWWETV-Cysteamide) [Pep-2.7-cya]”, the Pro [2] is reported as 10-20% and the Pep [3] is reported as 20-30%.

With “Lys Glu Thr Trp Trp Glu Thr Trp Thr Trp Ser Gln Pro Lys Lys Lys Arg Lys Val (Ac-KETWWETWTWSQPKKKRKV-Cysteamide) [Pep-2.4-cya]” the Drug [1] was 5%, the Pro [2] was 20-30% and the Pep [3] was 60%.

With “Tyr Gly Phe Lys Lys Arg Arg Gln Thr Trp Trp Glu Thr Trp Trp Thr Glu (Ac-YGFKKRRQTWWETWWTE-Cysteamide) [Pep-1.2-cya]” the Drug [1] was 5%, the Pro [2] was 80-90% and the Pep [3] was 80%.

Work on KETWWETWWTEWSQPKKRKV [Pep-2.1-cya] yielded a Drug [1] of 20%, a Pro [2] of 70% and a Pep [3] of 80%.

For “MGLGLHLLVLAAALQGAWSQPKKKRKV (Ac-MGLGLHLLVLAAALQGAWSQPKKKRKV; not fully specified (C-terminus); printed as MGLGLHLLVLAAALQGAWSQPKKKRKV) [[1]]”, the “final localization of lucifer yellow-linked peptide” value (from here on “final localization”) [5] is listed as “localize in the nuclei of the cells”, the “effect on membrane potential and transmembrane pH gradient” value [6] is listed as “decrease” and the surface pressure increase [7] is listed as about 15 mN/m.

For KTWWETWWETWSQPKKRKV [Pep-4.2-cya], the Drug [1] was “Aggr”, the Pro [2] was “Aggr” and the Pep [3] was “Aggr”.

For “Lys Glu Thr Trp Trp Glu Thr Trp Trp Thr Glu Trp Ser Gln Pro Lys Lys Lys Arg Lys Val (Ac-KETWWETWWTEWSQPKKKRKV-Cysteamide) [Pep-2-cya]”, the Drug [1] was 20%.

With “Lys Thr Trp Trp Glu Thr Trp Trp Glu Thr Ala Ser Gln Pro Lys Lys Arg Lys Val (Ac-KTWWETWWETASQPKKRKV-Cysteamide; SMILES CC(=O)N[C@@H](CCCCN)C(=O)N[C@H](C(=O)N[C@@H](Cc1c[nH]c2ccccc12)C(=O)N[C@@H](Cc1c[nH]c2ccccc12)C(=O)N[C@@H](CCC(=O)O)C(=O)N[C@H](C(=O)N[C@@H](Cc1c[nH]c2ccccc12)C(=O)N[C@@H](Cc1c[nH]c2ccccc12)C(=O)N[C@@H](CCC(=O)O)C(=O)N[C@H](C(=O)N[C@@H](C)C(=O)N[C@@H](CO)C(=O)N[C@@H](CCC(N)=O)C(=O)N1CCC[C@H]1C(=O)N[C@@H](CCCCN)C(=O)N[C@@H](CCCCN)C(=O)N[C@@H](CCCNC(=N)N)C(=O)N[C@@H](CCCCN)C(=O)N[C@H](C(=O)NCCS)C(C)C)[C@@H](C)O)[C@@H](C)O)[C@@H](C)O) [Pep-4.1-cya]” the Drug [1] was “Aggr”, the Pro [2] was “Aggr” and the Pep [3] was “Aggr”.

KETWWETWWETWSQKKKRKV [Pep-2.9-cya] gave a Pep [3] of 5%.

“Lys Lys Lys Arg Lys Val Lys Glu Thr Trp Trp Glu Thr Trp Trp Glu Thr Val (Ac-KKKRKVKETWWETWWETV-Cysteamide; SMILES CC(=O)N[C@@H](CCCCN)C(=O)N[C@@H](CCCCN)C(=O)N[C@@H](CCCCN)C(=O)N[C@@H](CCCNC(=N)N)C(=O)N[C@@H](CCCCN)C(=O)N[C@H](C(=O)N[C@@H](CCCCN)C(=O)N[C@@H](CCC(=O)O)C(=O)N[C@H](C(=O)N[C@@H](Cc1c[nH]c2ccccc12)C(=O)N[C@@H](Cc1c[nH]c2ccccc12)C(=O)N[C@@H](CCC(=O)O)C(=O)N[C@H](C(=O)N[C@@H](Cc1c[nH]c2ccccc12)C(=O)N[C@@H](Cc1c[nH]c2ccccc12)C(=O)N[C@@H](CCC(=O)O)C(=O)N[C@H](C(=O)N[C@H](C(=O)NCCS)C(C)C)[C@@H](C)O)[C@@H](C)O)[C@@H](C)O)C(C)C) [Pep-2.6-cya]” showed a Pro [2] of 20% and a Pep [3] of 30%.

For “Lys Trp Trp Glu Thr Trp Trp Glu Thr Trp Ser Gln Pro Lys Lys Lys Arg Lys Val (Ac-KWWETWWETWSQPKKKRKV-Cysteamide) [Pep-2.5-cya]”, the Drug [1] was 5%, the Pro [2] was 5% and the Pep [3] was 50-60%.

With “GALFLGWLGAAGSTMGARKKKRKV (Ac-GALFLGWLGAAGSTMGARKKKRKV; not fully specified (C-terminus); printed as GALFLGWLGAAGSTMGARKKKRKV) [[4]]” the “final localization” value [5] was “remains membrane associated”.

With “Lys Glu Thr Trp Trp Glu Thr Trp Trp Glu Thr Trp Ser Gln Pro Lys Lys Lys Arg Lys Val (Ac-KETWWETWWETWSQPKKKRKV-Cysteamide) [Pep-2.3-cya]” the Drug [1] was 30%, the Pro [2] was 50-70% and the Pep [3] was 60-70%.

Substance “Lys Glu Thr Trp Trp Glu Thr Trp Trp Thr Glu Ala Ser Gln Pro Lys Lys Arg Lys Val (Ac-KETWWETWWTEASQPKKRKV-Cysteamide) [Pep-2.2-cya]” has a Drug [1] of 5% and a Pro [2] of 30%.

With “GALFLGWLGAAGSTMGAWSQPKKKRKV (Ac-GALFLGWLGAAGSTMGAWSQPKKKRKV; not fully specified (C-terminus); printed as GALFLGWLGAAGSTMGAWSQPKKKRKV) [[3]]” the “final localization” value [5] was “both localizations, membrane associate and nuclear”.

In the case of “Tyr Gly Phe Lys Lys Phe Arg Lys Pro Trp Thr Trp Trp Glu Thr Trp Trp Thr Glu (Ac-YGFKKFRKPWTWWETWWTE-Cysteamide; SMILES CC(=O)N[C@@H](Cc1ccc(O)cc1)C(=O)NCC(=O)N[C@@H](Cc1ccccc1)C(=O)N[C@@H](CCCCN)C(=O)N[C@@H](CCCCN)C(=O)N[C@@H](Cc1ccccc1)C(=O)N[C@@H](CCCNC(=N)N)C(=O)N[C@@H](CCCCN)C(=O)N1CCC[C@H]1C(=O)N[C@@H](Cc1c[nH]c2ccccc12)C(=O)N[C@H](C(=O)N[C@@H](Cc1c[nH]c2ccccc12)C(=O)N[C@@H](Cc1c[nH]c2ccccc12)C(=O)N[C@@H](CCC(=O)O)C(=O)N[C@H](C(=O)N[C@@H](Cc1c[nH]c2ccccc12)C(=O)N[C@@H](Cc1c[nH]c2ccccc12)C(=O)N[C@H](C(=O)N[C@@H](CCC(=O)O)C(=O)NCCS)[C@@H](C)O)[C@@H](C)O)[C@@H](C)O) [Pep-3-cya]”, the Drug [1] is reported as 50-70%, the Pro [2] is reported as 5% and the Pep [3] is reported as 50%.
